IC50 data for 28 molecules are collected here from ChEMBL document CHEMBL3102724, “Isolation of antiplasmodial anthraquinones from Kniphofia ensifolia, and synthesis and structure-activity relationships of related compounds” (Bioorg Med Chem, 2014).

Bounds are passed on as bounds.

For assay [1], the system named is Plasmodium falciparum. As to the kind of experiment: Antiplasmodial activity against chloroquine-resistant ring stage Plasmodium falciparum Dd2 after 72 hrs by SYBR Green 1-based fluorescence assay. It counts as functional, organism-based. The note with it: Dd2, 72 h.
Assay [2] relates to A2780. As to the kind of experiment: Cytotoxicity against human A2780 cells. It counts as cell-based.

By IC50 is commonly meant the concentration that inhibits the measured activity by half. On to `COc1cc(C(=O)OCc2cc(O)c3c(c2)C(=O)c2cccc(O)c2C3=O)cc(OC)c1OC`, for which the IC50 in assay [1] was 16 µM. As for `C[C@@H]1CC[C@H]2[C@@H](C)C(=O)O[C@@H]3O[C@@]4(C)CC[C@@H]1[C@]32OO4` [ARTEMISININ], the half-inhibitory concentration (IC50) in assay [1] was 0.007 µM. On the same count and under the same terms, next, `CC(=O)OCc1cc(O)c2c(c1)C(=O)c1cccc(O)c1C2=O`: 42 µM. Same read-out and setting: the value for `COc1ccc(/C=C/C(=O)OCc2cc(O)c3c(c2)C(=O)c2cccc(O)c2C3=O)c(OC)c1` was 6 µM. With `O=C(/C=C/c1ccc(O)cc1)OCc1cc(O)c2c(c1)C(=O)c1cccc(O)c1C2=O`, the half-inhibitory concentration (IC50) was 9 µM in assay [1] and more than 60 µM in assay [2].

Regarding `COc1ccc(C(=O)OCc2cc(O)c3c(c2)C(=O)c2cccc(O)c2C3=O)cc1`, the IC50 in assay [1] was found to be 22 µM.

For the molecule `O=C(/C=C/c1ccc2c(c1)OCO2)OCc1cc(O)c2c(c1)C(=O)c1cccc(O)c1C2=O`, inhibition in assay [1] was half-maximal at 1.9 µM (IC50). In turn, `O=C(/C=C/c1ccccc1)OCc1cc(O)c2c(c1)C(=O)c1cccc(O)c1C2=O` yielded a half-maximal inhibitory concentration (IC50) in assay [1] of 18 µM. In assay [1], `COc1ccc(OC)c(/C=C/C(=O)OCc2cc(O)c3c(c2)C(=O)c2cccc(O)c2C3=O)c1` showed an IC50 of 9 µM. Regarding `Cc1cc(O)c2c(c1)C(O)(c1ccc3c(c1O)C(=O)c1c(O)cc(C)c(O)c1C3=O)c1cccc(O)c1C2=O` (configuration not stated), the results for the IC50 in assay [1] and in assay [2] were 0.2 µM and 4 µM, respectively. Turning to `Cc1cc(O)cc2c1C(=O)c1cc(-c3c(C)cc4c(c3O)C(=O)c3c(O)cccc3C4=O)cc(O)c1C2=O`, the values for the IC50 in assay [1] and in assay [2] were 10 µM and more than 60 µM, respectively. The like results for `O=C(OCc1cc(O)c2c(c1)C(=O)c1cccc(O)c1C2=O)c1ccc(O)cc1` were, in that order, 26 µM and more than 60 µM. The corresponding values for `O=C1c2cccc(O)c2C(=O)c2c(O)cc(CO)cc21` [ALOE-EMODIN] are 55 µM and 26 µM. Take `COc1cc(/C=C/C(=O)OCc2cc(O)c3c(c2)C(=O)c2cccc(O)c2C3=O)cc(OC)c1OC`: inhibition in assay [1] was half-maximal at 2.7 µM (IC50). Turning to `COc1ccc(/C=C/C(=O)OCc2cc(O)c3c(c2)C(=O)c2cccc(O)c2C3=O)cc1`, in assay [1], the half-inhibitory concentration (IC50) came out at 5 µM. The molecule `O=C(CCc1ccccc1)OCc1cc(O)c2c(c1)C(=O)c1cccc(O)c1C2=O` gave an IC50 in assay [1] of 36 µM. Same read-out and setting: next, `COc1ccc(/C=C/C(=O)OCc2cc(O)c3c(c2)C(=O)c2cccc(O)c2C3=O)cc1OC`: 1.3 µM; `C/C=C/C(=O)OCc1cc(O)c2c(c1)C(=O)c1cccc(O)c1C2=O`: 45 µM. On the same count and under the same terms, the value for `COc1cccc(/C=C/C(=O)OCc2cc(O)c3c(c2)C(=O)c2cccc(O)c2C3=O)c1OC` was 8 µM; that for `O=C(OCc1cc(O)c2c(c1)C(=O)c1cccc(O)c1C2=O)c1ccccc1` was 31 µM. In assay [1], `COc1ccc(C(=O)OCc2cc(O)c3c(c2)C(=O)c2cccc(O)c2C3=O)cc1OC` gave an IC50 of 14 µM.

As for `Cc1cc(O)c2c(c1)C(=O)c1cccc(O)c1C2=O` [CHRYSOPHANOL], the results for the half-maximal inhibitory concentration (IC50) in assay [1] and in assay [2] were 58 µM and more than 60 µM, respectively.

`CC(=O)Oc1ccc(/C=C/C(=O)OCc2cc(O)c3c(c2)C(=O)c2cccc(O)c2C3=O)cc1` registered an IC50 in assay [1] of 12 µM. For the molecule `Cc1cc(O)c2c(c1)C(=O)c1ccc(C3(O)c4cccc(O)c4C(=O)c4c(O)cc(C)cc43)c(O)c1C2=O` (configuration not stated), the IC50 stood at 0.4 µM in assay [1] and 6 µM in assay [2]. As to `Cc1cc(O)c2c(c1)C(=O)c1ccc(-c3c(C)cc(O)c4c3C(=O)c3cccc(O)c3C4=O)c(O)c1C2=O`, the IC50 is 10 µM in assay [1] and more than 60 µM in assay [2]. `COc1cc(O)c(-c2c(C)cc(O)c3c2C(=O)c2cccc(O)c2C3=O)c(O)c1C(C)=O` [KNIPHOLONE]: the results for the 50% inhibitory concentration (IC50) in assay [1] and in assay [2] were 1.1 µM and 8 µM, respectively.

`COc1cc(/C=C/C(=O)OCc2cc(O)c3c(c2)C(=O)c2cccc(O)c2C3=O)cc(OC)c1`: the midpoint of inhibition in assay [1], the IC50, lay at 2.5 µM. `CC(=O)Oc1ccc(C(=O)OCc2cc(O)c3c(c2)C(=O)c2cccc(O)c2C3=O)cc1` registered an IC50 in assay [1] of 30 µM.
